Laboratory results taken from patent US20250114460A1, “NOVEL PLK1 DEGRADATION INDUCING COMPOUND” (UPPTHERA, INC., priority 2021, published 2025).

Legend:
Format in all cases: cell-based
[1] = target: T1, PLK1 (Homo sapiens, UniProt P53350); assay: Luciferase assay for PLK1 in HeLa LgBit (Plk1-HiBit KI) cell line; conditions: 300 nM compound, luminescence after 9 hours
T1 construct: endogenous in cells; host or cells: HeLa LgBit (Plk1-HiBit KI): HeLa stably expressing LgBit, with a CRISPR/Cas9 knock-in of HiBit at the endogenous PLK1 locus
Summary of the method: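 Luminescence, followed in real time after adding compound at 300 nM and Endurazine substrate, is reported relative to DMSO-treated wells. Cells are a HeLa LgBit line with a Plk1-HiBit knock-in, synchronized by 2 mM thymidine for 24 h, released, and cultured 18 h before treatment.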

[2] = system: NCI-H526 cell line; assay: Cell viability assay for H526 cell (EZ-Cytox); conditions: Homo sapiens, NCI-H526, 120 h; H526 cells, 5 days, 3000 nM to 0.46 nM
Summary of the method: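 Read-out was EZ-Cytox colorimetric absorbance at 450 nm, taken after brief plate shaking, with IC50 derived. Before reading, H526 cells had been cultured with test compound for 5 days.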

[3] = system: MRC-5 cell line; assay: Cell viability assay for MRC-5 cell line (EZ-Cytox); conditions: Homo sapiens, MRC5, 120 h; MRC-5 normal cell line, 5 days, 10000 nM to 1.52 nM; N.D. = no cytotoxicity until 10 μM; read-out: Activity: IC50 value of Exemplary Compound to MRC-5 cell line
Experimental: 4. Cell Viability Assay for MRC-5 Cell Line
(1) Culture of MRC-5 Cell Line
Passage of cultured cells was maintained within P15.
(2) Treatment of Compounds of the Present Invention
Then, it was cultured in 37° C.
(3) Cytotoxicity Experiment
CO2 incubator for 4 hours.

T1 sequence (P53350 whole entry): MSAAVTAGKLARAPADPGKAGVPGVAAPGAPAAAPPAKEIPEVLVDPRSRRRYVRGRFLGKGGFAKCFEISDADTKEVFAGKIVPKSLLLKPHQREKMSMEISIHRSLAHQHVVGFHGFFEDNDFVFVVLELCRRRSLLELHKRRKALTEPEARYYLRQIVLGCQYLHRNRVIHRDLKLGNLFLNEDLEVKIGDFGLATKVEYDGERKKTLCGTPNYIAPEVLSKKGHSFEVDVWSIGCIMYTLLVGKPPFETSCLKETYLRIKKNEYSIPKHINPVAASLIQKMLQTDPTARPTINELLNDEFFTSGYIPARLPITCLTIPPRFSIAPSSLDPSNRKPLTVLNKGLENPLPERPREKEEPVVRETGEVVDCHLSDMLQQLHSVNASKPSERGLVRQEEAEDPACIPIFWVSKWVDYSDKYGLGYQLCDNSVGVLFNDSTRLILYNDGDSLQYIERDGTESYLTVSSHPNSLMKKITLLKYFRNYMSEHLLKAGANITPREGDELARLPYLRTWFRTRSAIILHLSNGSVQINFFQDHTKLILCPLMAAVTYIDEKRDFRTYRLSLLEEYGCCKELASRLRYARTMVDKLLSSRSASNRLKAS

Compound | Activity: ratio of the luminescense value of each Exemplary Compound treatment group to DMSO treatment group [1] | IC50 [2] [µM] | IC50 [3] [µM]
COc1cc(C(=O)NN2CC(N3CCN(c4ccc5c(c4)C(=O)N(C4CCC(=O)NC4=O)C5=O)CC3)C2)ccc1Nc1ncc2c(n1)N(C(C)C)CC(F)(F)C(=O)N2C (stereo not drawn) [Compound 159, 4-((7,7-difluoro-9-isopropyl-5-methyl-6-oxo-6,7,8,9-tetrahydro-5H-pyrimido[4,5-b][1,4]diazepin-2-yl)amino)-N-(3-(4-(2-(2,6-dioxopiperidin-3-yl)-1,3-dioxoisoindolin-5-yl)piperazin-1-yl)azetidin-1-yl)-3-methoxybenzamide] | ++ (++<0.6) | < 0.03 | 4.91
COc1cc(C(=O)NN2CC(CN3CCN(c4cccc5c4C(=O)N(C4CCC(=O)NC4=O)C5=O)CC3)C2)ccc1Nc1ncc2c(n1)N(C(C)C)CC(F)(F)C(=O)N2C (stereo not drawn) [Compound 161, 4-((7,7-difluoro-9-isopropyl-5-methyl-6-oxo-6,7,8,9-tetrahydro-5H-pyrimido[4,5-b][1,4]diazepin-2-yl)amino)-N-(3-((4-(2-(2,6-dioxopiperidin-3-yl)-1,3-dioxoisoindolin-4-yl)piperazin-1-yl)methyl)azetidin-1-yl)-3-methoxybenzamide] | ++ (++<0.6) | < 0.03 | > 10
COc1cc(C(=O)NC2CCN(CC3CN(c4cc5c(cc4F)C(=O)N(C4CCC(=O)NC4=O)C5=O)C3)CC2)ccc1Nc1ncc2c(n1)N(C(C)C)CC(F)(F)C(=O)N2C (stereo not drawn) [Compound 162, 4-((7,7-difluoro-9-isopropyl-5-methyl-6-oxo-6,7,8,9-tetrahydro-5H-pyrimido[4,5-b][1,4]diazepin-2-yl)amino)-N-(1-((1-(2-(2,6-dioxopiperidin-3-yl)-6-fluoro-1,3-dioxoisoindolin-5-yl)azetidin-3-yl)methyl)piperidin-4-yl)-3-methoxybenzamide] | ++ (++<0.6) | < 0.1 | > 10
COc1cc(C(=O)NC2CC(N(C)C3CCN(c4cccc5c4C(=O)N(C4CCC(=O)NC4=O)C5=O)CC3)C2)ccc1Nc1ncc2c(n1)N(C(C)C)CC(F)(F)C(=O)N2C (stereo not drawn) [Compound 164, 4-((7,7-difluoro-9-isopropyl-5-methyl-6-oxo-6,7,8,9-tetrahydro-5H-pyrimido[4,5-b][1,4]diazepin-2-yl)amino)-N-(3-((1-(2-(2,6-dioxopiperidin-3-yl)-1,3-dioxoisoindolin-4-yl)piperidin-4-yl)(methyl)amino)cyclobutyl)-3-methoxybenzamide] | ++ (++<0.6) | < 0.03 | > 10
COc1cc(C(=O)NC2CCC(N(C)C3CCN(c4cccc5c4C(=O)N(C4CCC(=O)NC4=O)C5=O)CC3)C2)ccc1Nc1ncc2c(n1)N(C(C)C)CC(F)(F)C(=O)N2C (stereo not drawn) [Compound 165, 4-((7,7-difluoro-9-isopropyl-5-methyl-6-oxo-6,7,8,9-tetrahydro-5H-pyrimido[4,5-b][1,4]diazepin-2-yl)amino)-N-(3-((1-(2-(2,6-dioxopiperidin-3-yl)-1,3-dioxoisoindolin-4-yl)piperidin-4-yl)(methyl)amino)cyclopentyl)-3-methoxybenzamide] | ++ (++<0.6) | < 0.03 | > 10
COc1cc(C(=O)NN2CCN(C3CCN(c4cccc5c4C(=O)N(C4CCC(=O)NC4=O)C5=O)CC3(F)F)CC2)ccc1Nc1ncc2c(n1)N(C(C)C)CC(F)(F)C(=O)N2C (stereo not drawn) [Compound 167, 4-((7,7-difluoro-9-isopropyl-5-methyl-6-oxo-6,7,8,9-tetrahydro-5H-pyrimido[4,5-b][1,4]diazepin-2-yl)amino)-N-(4-(1-(2-(2,6-dioxopiperidin-3-yl)-1,3-dioxoisoindolin-4-yl)-3,3-difluoropiperidin-4-yl)piperazin-1-yl)-3-methoxybenzamide] | +++ (+++: <0.3) | < 0.03 | > 10
